The values that follow come from article PMC11012289, “The Discovery of New Inhibitors of Insulin-Regulated Aminopeptidase by a High-Throughput Screening of 400,000 Drug-like Compounds” (International Journal of Molecular Sciences, 2024).

Data set [1] relates to primary hippocampal neuron cultures. On the set-up: method as in PMID 26769413, PMID 36286055. The following applies: cited from earlier work.
The target of data set [2] is IRAP. Further details: method as in PMID 18716029. The following applies: cited from earlier work.
The test system of data set [3] is rodents. Further details: method as in PMID 19233301, PMID 18716029. To be noted: intracerebroventricular administration; cited from earlier work.
Data set [4] deals with APN, ERAP1, ERAP2, and LTA4H. The following applies: cited from earlier work.
The conditions of data set [5]: cited from earlier work.
Data set [6] addresses T1, IRAP (Homo sapiens, UniProt Q9UIQ6).
T1 construct: The screen was performed with the soluble truncated IRAP enzyme; made in house
Description: Thermal shift (TSA) IRAP assay. To be noted: screening hits at 30 µM, 1% DMSO. The data set is classed as binding.

On the set-up of data set [7]: method as in ELF screening history. The following applies: ref ELF screening history, cited from earlier work.
In data set [8] the target is T1, IRAP. Description: Orthogonal absorbance IRAP assay (L-Leucine para-nitroanilide cleavage). The data set is classed as biochemical. The following applies: 1 mM L-Leucine p-Nitroanilide, 120 min RT. Summed up: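 Absorbance assay: IRAP protein at 2.5 × 10^−4 mg/mL final with 1 mM L-leucine para-nitroanilide in buffer containing 0.05% BSA; 120 min at RT in the dark. para-Nitroaniline read at 405 nm. Dose–response spanned 20 μM–27.4 nM compound, 1% DMSO.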

The target in data set [9] is T1, IRAP. Description: Deselection fluorescence IRAP assay with 10 µM zinc. Type of data set: biochemical. To be noted: 10 µM ZnSO4 in assay buffer.
In data set [10] the target is T1, IRAP. Kind of data set: Primary fluorescence IRAP assay (L-Leucine-7-amido-4-methylcoumarin cleavage). The data set is classed as biochemical.
Data set [11] relates to rats. The following applies: cited from earlier work.
Data set [12] addresses IRAP. To be noted: read-out: Ki (affinity to IRAP); cited from earlier work.

Like-named read-outs stand apart in the source and are kept apart here. Where no end group is shown, it is not given here. [ ]: non-standard residue; d: D form. Nle = CCCC[C@H](N)C(=O)O

T1 sequence (Q9UIQ6 155-1025 limits assumed): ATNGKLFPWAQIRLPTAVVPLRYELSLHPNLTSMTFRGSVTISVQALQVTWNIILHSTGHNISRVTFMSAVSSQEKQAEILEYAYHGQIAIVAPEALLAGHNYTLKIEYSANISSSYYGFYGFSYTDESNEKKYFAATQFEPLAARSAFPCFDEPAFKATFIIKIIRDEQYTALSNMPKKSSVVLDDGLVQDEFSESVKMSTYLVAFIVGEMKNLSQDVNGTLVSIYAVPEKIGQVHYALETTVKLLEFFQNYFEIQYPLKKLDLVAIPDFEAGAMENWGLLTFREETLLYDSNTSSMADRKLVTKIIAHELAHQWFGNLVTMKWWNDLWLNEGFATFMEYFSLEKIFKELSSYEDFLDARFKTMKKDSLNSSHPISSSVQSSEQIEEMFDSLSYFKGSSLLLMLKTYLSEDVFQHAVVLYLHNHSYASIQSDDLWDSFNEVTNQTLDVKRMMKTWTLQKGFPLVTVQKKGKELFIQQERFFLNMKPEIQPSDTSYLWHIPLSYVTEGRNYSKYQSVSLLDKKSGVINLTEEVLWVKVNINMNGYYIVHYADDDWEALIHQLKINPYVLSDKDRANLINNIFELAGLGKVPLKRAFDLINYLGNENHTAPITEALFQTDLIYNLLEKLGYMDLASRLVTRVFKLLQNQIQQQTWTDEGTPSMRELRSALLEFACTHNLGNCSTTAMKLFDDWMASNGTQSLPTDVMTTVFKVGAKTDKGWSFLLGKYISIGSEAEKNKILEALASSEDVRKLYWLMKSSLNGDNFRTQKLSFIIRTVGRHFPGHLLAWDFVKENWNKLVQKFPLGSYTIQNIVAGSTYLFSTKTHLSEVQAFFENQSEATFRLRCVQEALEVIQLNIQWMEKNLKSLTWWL

For the molecule `N[C@H]1CCSSC[C@@H](C(=O)NCc2ccccc2CC(=O)O)NC(=O)C[C@H](Cc2ccc(O)cc2)NC1=O` [HA08], in [1], the “effect on hydrogen peroxide-induced toxicity” value is “reversed hydrogen peroxide-induced toxicity” and the “effect on spine density” value is “enhanced spine densities”.
Turning to `CCOC(=O)C1=C(NC(C)=O)Oc2cc(O)ccc2C1c1cccnc1` (stereo not drawn) [HFI-419], the Ki in [2] was 0.42 µM. In addition, the effect on cognition result in data set [3] is “cognitive-enhancing effect”. The “selectivity versus other aminopeptidases” value in data set [4] was “high selectivity”.
In the case of `CCOC(=O)C1=C(NC(C)=O)Oc2cc(O)ccc2C1c1cnc2ccccc2c1` (stereo not drawn) [HFI-437], the Ki in data set [2] is 0.02 µM.
`CC[C@H](C)[C@H](NC(=O)[C@H](Cc1ccc(O)cc1)NC(=O)[C@@H](CN)C(C)C)C(=O)N[C@H]1Cc2c([nH]c3ccccc23)CN(CC(=O)N[C@@H](Cc2ccccc2)C(=O)O)C1=O` [IVDE77]: the metabolic stability result in [5] is given as “improved metabolic stability”.
With `c1ccn(CCCSc2nnc3ccc(N4CCCC4)nn23)c1` [QHL50], in data set [6], the “TSA (∆°C), thermal shift of IRAP” value was 0.44 °C. In addition, the “Enzyme Active” value in data set [7] (number of ELF enzyme screens in which the compound was active) is given as 7. Moreover, the Targets active in data set [7] (number of ELF screens in which the compound was active) was 11. The “Enzyme Active %” value in data set [7] (share of ELF enzyme targets screened) is given as 8.1%. For the same molecule, the “Targets Active %” value in [7] (share of all ELF targets screened) is recorded as 7.6%. For the same molecule, the “Absorbance pIC50” value in data set [8] is 5.36. The “Fluorescence + Zn pIC50” value in data set [9] came to 4.7. Moreover, the “Fluorescence pIC50” value in [10] (37.5 µM L-Leucine-7-amido-4-methylcoumarin, 60 min RT, dose-response 20 µM-27.4 nM) was found to be 4.74. Moreover, in data set [10] (37.5 µM L-Leucine-7-amido-4-methylcoumarin, 60 min RT, dose-response 20 µM-27.4 nM, read-out: Fluorescence IC50), the IC50 came out at 18.2 µM. In addition, in data set [10] (calculated from (pIC50Fluorescence − LogD)), the LipE is listed as 2.06.
Turning to “Leu-Val-Val-Tyr-Pro-Trp-Thr-Gln-Arg-Phe (LVVYPWTQRF; printed: Leu-Val-Val-Tyr-Pro-Trp-Thr-Gln-Arg-Phe) [LVV-hemorphin-7, structural analog of Ang IV]”, the “effect on memory retention and retrieval” value in [11] was “strong promoters of memory retention and retrieval”.
Consider “Nle-Tyr-Ile-His-Pro-Phe ([Nle]YIHPF) [Nle-Ang IV, structural analog of Ang IV]”, for which the “effect on memory retention and retrieval” value in data set [11] was “strong promoters of memory retention and retrieval”.
With Val-Tyr-Ile-His-Pro-Phe [Ang IV], the Ki in [12] is 0.062 µM. For the same molecule, in [11] (intracerebroventricular injection), the “effect on memory and learning” value is “improved memory and learning”.
